Data: patent publication US20220162192A1 (ESCAPE Bio, Inc., priority 2019, published 2022)

Tests used:
[1] = target: T1, Recombinant wild type LRRK2 protein (Homo sapiens, UniProt Q5S007); assay: LanthaScreen Kinase Activity Assay (TR-FRET), wild type LRRK2; assay type: biochemical; details: class symbols; 25 μM ATP, 400 nM LRRKtide, 2.9 nM kinase, 60 min at room temperature; read-out: LRRK2 WT IC50
T1 construct: purchased Life Technologies PR8604B
Experimental: (§1) LRRK2 kinase activity was measured using a LanthaScreen™ Kinase Activity Assay from ThermoFisher Scientific. Recombinant wild type or G2019S-LRRK2 protein (Life Technologies, PR8604B or PV4881, respectively), was incubated with a fluorescein-labeled peptide substrate called LRRKtide that is based upon ezrin/radixin/moesin (ERM) (Life Technologies, PV4901) in the presence of ATP and serially diluted compound. After an incubation period of 1 hr, the phosphotransferase activity was stopped and a terbium-labelled anti-pERM antibody (Life Technologies, PV4899) was added to detect the phosphorylation of LRRKtide by measuring the time resolved-Forster resonant energy transfer (TR-FRET) signal from the terbium label on the antibody to the fluorescein tag on LRRKtide, expressed as the 520 nm/495 nm emission ratio. Compound-dependent inhibition of the TR-FRET signal was used to generate a concentration-response curve for IC50 determination.
(§2) The assay was carried out under the following protocol conditions: 1 mM compound in DMSO was serially diluted 1:3, 11 points in DMSO with a Biomek FX and 0.1 μL of the diluted compound was subsequently stamped into the assay plate (384-well format Lumitrac 200, Greiner, 781075) with an Echo Labcyte such that the final compound concentration in the assay was 10 μM to […]. Subsequently, 5 μL of 2× kinase solution (2.9 nM final concentration) was added to the assay plate in assay buffer composed of 50 mM Tris pH 8.5 (Sigma, T6791), 5 mM MgCl2 (Fluka, 63020), 1 mM EGTA (Sigma, E3889), 0.01% BRIJ-35 (Sigma, P1254) and 2 mM DTT. The reaction was started by addition of 2×ATP/LRRKtide solution in assay buffer such that the final concentration was 400 nM LRRKtide and 25 μM ATP. After 60 min incubation at room temperature, the reaction was stopped by addition of […] containing a final concentration of 2 nM anti-pERM antibody and 10 mM EDTA. After a 30 min incubation at RT, the TR-FRET signal was measured on a Wallac 2104 EnVision® multilabel reader at an excitation wavelength of 340 nm and reading emission at 520 nm and 495 nm. The ratio of the 520 nm and 495 nm emission was used to analyze the data.

[2] = target: T2, Recombinant G2019S-LRRK2 protein (Homo sapiens, UniProt Q5S007, G2019S); assay: LanthaScreen Kinase Activity Assay (TR-FRET), G2019S-LRRK2; assay type: biochemical; details: class symbols; 25 μM ATP, 400 nM LRRKtide, 2.9 nM kinase, 60 min at room temperature
T2 construct: purchased Life Technologies PV4881
Experimental: as §1, §2

T1 sequence (Q5S007 whole entry): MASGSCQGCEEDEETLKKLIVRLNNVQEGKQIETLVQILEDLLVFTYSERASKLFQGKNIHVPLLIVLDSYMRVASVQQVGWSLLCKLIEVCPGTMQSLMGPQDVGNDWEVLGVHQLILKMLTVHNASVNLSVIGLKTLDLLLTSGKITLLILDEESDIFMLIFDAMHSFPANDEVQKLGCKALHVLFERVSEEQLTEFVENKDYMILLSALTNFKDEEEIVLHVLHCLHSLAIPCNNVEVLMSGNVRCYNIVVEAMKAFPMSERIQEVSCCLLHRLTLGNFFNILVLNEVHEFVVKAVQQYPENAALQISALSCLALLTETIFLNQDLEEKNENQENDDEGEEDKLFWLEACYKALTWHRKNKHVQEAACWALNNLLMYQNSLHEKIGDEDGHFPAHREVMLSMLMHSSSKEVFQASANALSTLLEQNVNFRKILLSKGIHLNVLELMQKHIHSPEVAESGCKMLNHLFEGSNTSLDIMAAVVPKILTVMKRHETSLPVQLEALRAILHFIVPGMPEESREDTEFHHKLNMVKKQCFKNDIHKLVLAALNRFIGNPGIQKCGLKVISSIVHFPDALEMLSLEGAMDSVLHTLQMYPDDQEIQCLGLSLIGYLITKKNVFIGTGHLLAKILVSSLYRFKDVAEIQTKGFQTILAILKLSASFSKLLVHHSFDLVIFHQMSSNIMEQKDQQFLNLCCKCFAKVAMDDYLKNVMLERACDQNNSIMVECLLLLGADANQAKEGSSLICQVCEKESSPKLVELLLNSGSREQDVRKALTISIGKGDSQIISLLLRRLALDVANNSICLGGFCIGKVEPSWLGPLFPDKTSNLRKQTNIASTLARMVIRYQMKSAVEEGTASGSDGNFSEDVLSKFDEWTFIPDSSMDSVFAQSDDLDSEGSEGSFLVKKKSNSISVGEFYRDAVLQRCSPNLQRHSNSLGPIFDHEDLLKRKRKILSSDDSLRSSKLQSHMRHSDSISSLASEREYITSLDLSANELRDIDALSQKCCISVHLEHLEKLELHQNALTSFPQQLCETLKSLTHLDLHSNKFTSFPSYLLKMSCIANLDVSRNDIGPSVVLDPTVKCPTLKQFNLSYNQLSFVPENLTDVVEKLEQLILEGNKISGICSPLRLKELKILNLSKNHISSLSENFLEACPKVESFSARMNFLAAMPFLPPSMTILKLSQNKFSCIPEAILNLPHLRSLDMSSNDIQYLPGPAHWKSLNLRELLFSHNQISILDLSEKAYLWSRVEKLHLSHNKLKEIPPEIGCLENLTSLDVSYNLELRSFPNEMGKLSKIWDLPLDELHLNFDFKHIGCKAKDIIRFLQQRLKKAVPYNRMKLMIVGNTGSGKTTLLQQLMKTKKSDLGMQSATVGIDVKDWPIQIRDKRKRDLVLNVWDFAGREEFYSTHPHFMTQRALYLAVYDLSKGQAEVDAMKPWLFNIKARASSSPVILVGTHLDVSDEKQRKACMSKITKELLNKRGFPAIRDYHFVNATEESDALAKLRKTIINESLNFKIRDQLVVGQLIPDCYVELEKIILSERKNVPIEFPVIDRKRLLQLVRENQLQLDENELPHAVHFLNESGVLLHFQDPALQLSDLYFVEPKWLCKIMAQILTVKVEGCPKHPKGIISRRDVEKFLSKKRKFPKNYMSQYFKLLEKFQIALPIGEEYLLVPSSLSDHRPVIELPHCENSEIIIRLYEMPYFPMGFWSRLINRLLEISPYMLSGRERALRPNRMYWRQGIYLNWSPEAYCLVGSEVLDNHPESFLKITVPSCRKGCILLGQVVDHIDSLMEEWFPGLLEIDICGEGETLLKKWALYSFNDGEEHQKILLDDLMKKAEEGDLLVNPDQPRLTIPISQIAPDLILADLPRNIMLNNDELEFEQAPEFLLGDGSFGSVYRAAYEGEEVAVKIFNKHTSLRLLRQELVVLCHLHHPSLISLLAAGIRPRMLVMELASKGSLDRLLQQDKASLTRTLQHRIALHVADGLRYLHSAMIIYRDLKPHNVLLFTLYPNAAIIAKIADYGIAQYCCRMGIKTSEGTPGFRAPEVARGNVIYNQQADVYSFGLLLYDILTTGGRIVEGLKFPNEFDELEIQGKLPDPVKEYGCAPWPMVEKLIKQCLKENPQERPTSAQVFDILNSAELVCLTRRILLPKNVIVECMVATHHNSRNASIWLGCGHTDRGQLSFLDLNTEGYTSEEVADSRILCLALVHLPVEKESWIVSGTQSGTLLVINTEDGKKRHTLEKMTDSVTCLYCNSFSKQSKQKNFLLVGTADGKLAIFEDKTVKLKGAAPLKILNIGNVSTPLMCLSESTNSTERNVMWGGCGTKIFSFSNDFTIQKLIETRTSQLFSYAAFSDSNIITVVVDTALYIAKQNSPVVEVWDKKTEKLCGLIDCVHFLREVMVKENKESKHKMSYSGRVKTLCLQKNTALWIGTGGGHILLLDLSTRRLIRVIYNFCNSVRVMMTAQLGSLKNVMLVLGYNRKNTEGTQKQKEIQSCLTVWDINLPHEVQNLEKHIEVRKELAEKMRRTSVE
T2 sequence (Q5S007 whole entry G2019S): as the sequence (Q5S007 whole entry) above, with G2019S counted along it

SMILES | IC50 [1] [µM] | IC50 [2] [µM]
O=C(Nc1ccc2[nH]nc(-c3ccoc3)c2c1)c1ccn2nccc2n1 [Example 127, N-(3-(Furan-3-yl)-1H-indazol-5-yl)pyrazolo[1,5-a]pyrimidine-5-carboxamide] | 0.1 to 1 | ≤ 0.1
Cc1nn(C)cc1-c1n[nH]c2ccc(NC(=O)c3c(F)cc4c(cnn4C)c3F)cc12 [Example 80, N-(3-(1,3-Dimethyl-1H-pyrazol-4-yl)-1H-indazol-5-yl)-4,6-difluoro-1-methyl-1H-indazole-5-carboxamide] | ≤ 0.1 | ≤ 0.1
Cc1cc2cncn2cc1C(=O)Nc1ccc2[nH]nc(C)c2c1 [Example 145, 7-Methyl-N-(3-methyl-1H-indazol-5-yl)imidazo[1,5-a]pyridine-6-carboxamide] | 0.1 to 1 | ≤ 0.1
O=C(Nc1ccc2[nH]nc(-c3ccoc3)c2c1)c1ccc2nccn2c1 [Example 119, N-(3-(Furan-3-yl)-1H-indazol-5-yl)imidazo[1,2-a]pyridine-6-carboxamide] | 0.1 to 1 | ≤ 0.1
Cc1n[nH]c2ccc(NC(=O)c3c(F)cc4c(cnn4C)c3F)cc12 [Example 51, 4,6-Difluoro-1-methyl-N-(3-methyl-1H-indazol-5-yl)-1H-indazole-5-carboxamide] | 0.1 to 1 | ≤ 0.1
O=C(Nc1ccc2[nH]nc(-c3ccoc3)c2c1)c1ccc2snnc2c1 [Example 121, N-(3-(Furan-3-yl)-1H-indazol-5-yl)benzo[d][1,2,3]thiadiazole-5-carboxamide] | ≤ 0.1 | ≤ 0.1
Cc1cc2c(C)nnn2c(C)c1C(=O)Nc1ccc2[nH]nc(-c3ccccc3)c2c1 [Example 64, 3,5,7-Trimethyl-N-(3-phenyl-1H-indazol-5-yl)-[1,2,3]triazolo[1,5-a]pyridine-6-carboxamide] | 0.1 to 1 | ≤ 0.1
Cc1ncc(-c2n[nH]c3ccc(NC(=O)c4c(F)cc5c(cnn5C)c4F)cc23)s1 [Example 95, 4,6-Difluoro-1-methyl-N-(3-(2-methylthiazol-5-yl)-1H-indazol-5-yl)-1H-indazole-5-carboxamide] | ≤ 0.1 | ≤ 0.1
Cc1cc2[nH]nnc2c(C)c1C(=O)Nc1ccc2[nH]nc(C)c2c1 [Example 11, 4,6-Dimethyl-N-(3-methyl-1H-indazol-5-yl)-1H-benzo[d][1,2,3]triazole-5-carboxamide] | 1 to 10 | 0.1 to 1
Cn1ncc2c(F)c(C(=O)Nc3ccc4[nH]nc(-c5cnccc5C(F)(F)F)c4c3)c(F)cc21 [Example 91, 4,6-Difluoro-1-methyl-N-(3-(4-(trifluoromethyl)pyridin-3-yl)-1H-indazol-5-yl)-1H-indazole-5-carboxamide] | 1 to 10 | 0.1 to 1
Cn1ncc2c(F)c(C(=O)Nc3cc4c(-c5ccoc5)n[nH]c4cc3F)c(F)cc21 [Example 144, 4,6-Difluoro-N-(6-fluoro-3-(furan-3-yl)-1H-indazol-5-yl)-1-methyl-1H-indazole-5-carboxamide] | ≤ 0.1 | ≤ 0.1
COc1ncccc1-c1n[nH]c2ccc(NC(=O)c3c(F)cc4c(cnn4C)c3F)cc12 [Example 81, 4,6-Difluoro-N-(3-(2-methoxypyridin-3-yl)-1H-indazol-5-yl)-1-methyl-1H-indazole-5-carboxamide] | 0.1 to 1 | ≤ 0.1
Cc1cc2cnnn2c(C)c1C(=O)Nc1ccc2[nH]nc(-c3ccccc3F)c2c1 [Example 44, N-(3-(2-Fluorophenyl)-1H-indazol-5-yl)-5,7-dimethyl-[1,2,3]triazolo[1,5-a]pyridine-6-carboxamide] | 0.1 to 1 | ≤ 0.1
Cn1cc2cc(C(=O)Nc3ccc4[nH]nc(-c5cnco5)c4c3)ncc2n1 [Example 159, 2-Methyl-N-(3-(oxazol-5-yl)-1H-indazol-5-yl)-2H-pyrazolo[3,4-c]pyridine-5-carboxamide] | ≤ 0.1 | ≤ 0.1
Cn1ncc2c(F)c(C(=O)Nc3ccc4[nH]nc(N5Cc6ccccc6C5)c4c3)c(F)cc21 [Example 109, 4,6-Difluoro-N-(3-(isoindolin-2-yl)-1H-indazol-5-yl)-1-methyl-1H-indazole-5-carboxamide] | 0.1 to 1 | ≤ 0.1
COc1ccccc1-c1n[nH]c2ccc(NC(=O)c3c(F)cc4c(cnn4C)c3F)cc12 [Example 85, 4,6-Difluoro-N-(3-(2-methoxyphenyl)-1H-indazol-5-yl)-1-methyl-1H-indazole-5-carboxamide] | 1 to 10 | ≤ 0.1
CC1(C)c2nncn2CCN1C(=O)Nc1ccc2[nH]nc(-c3ccoc3)c2c1 [Example 172, N-(3-(Furan-3-yl)-1H-indazol-5-yl)-8,8-dimethyl-5,6-dihydro-[1,2,4]triazolo[4,3-a]pyrazine-7(8H)-carboxamide] | 0.1 to 1 | 0.1 to 1
Cn1ncc2cc(C(=O)Nc3ccc4[nH]nc(-c5ccoc5)c4c3)ccc21 [Example 133, N-(3-(Furan-3-yl)-1H-indazol-5-yl)-1-methyl-1H-indazole-5-carboxamide] | ≤ 0.1 | ≤ 0.1
Cn1ncc2c1CCC(C(=O)Nc1ccc3[nH]nc(-c4ccoc4)c3c1)C2 (single isomer, unassigned) [Example 161a] | ≤ 0.1 | ≤ 0.1
Cn1ncc2c(F)c(C(=O)Nc3ccc4[nH]nc(-c5ccc(N6CCOCC6)cc5)c4c3)c(F)cc21 [Example 94, 4,6-Difluoro-1-methyl-N-(3-(4-morpholinophenyl)-1H-indazol-5-yl)-1H-indazole-5-carboxamide] | ≤ 0.1 | ≤ 0.1
Cn1ncc2cc(C(=O)Nc3ccc4[nH]nc(-c5cnco5)c4c3)ncc21 [Example 167, 1-Methyl-N-(3-(oxazol-5-yl)-1H-indazol-5-yl)-1H-pyrazolo[3,4-c]pyridine-5-carboxamide] | 0.1 to 1 | ≤ 0.1
Cn1nccc1-c1n[nH]c2ccc(NC(=O)c3c(F)cc4c(cnn4C)c3F)cc12 [Example 96, 4,6-Difluoro-1-methyl-N-(3-(1-methyl-1H-pyrazol-5-yl)-1H-indazol-5-yl)-1H-indazole-5-carboxamide] | 0.1 to 1 | ≤ 0.1
Cn1ncc2c(F)c(C(=O)Nc3ccc4[nH]nc(-c5ccoc5)c4c3)c(F)cc21 [Example 28, 4,6-Difluoro-N-(3-(furan-3-yl)-1H-indazol-5-yl)-1-methyl-1H-indazole-5-carboxamide] | ≤ 0.1 | ≤ 0.1
Cc1cc2cnsc2nc1C(=O)Nc1ccc2[nH]nc(-c3cnco3)c2c1 [Example 168, 5-Methyl-N-(3-(oxazol-5-yl)-1H-indazol-5-yl)isothiazolo[5,4-b]pyridine-6-carboxamide] | ≤ 0.1 | ≤ 0.1
COc1ccc(C)c(-c2n[nH]c3ccc(NC(=O)c4c(F)cc5c(cnn5C)c4F)cc23)c1 [Example 90, 4,6-Difluoro-N-(3-(5-methoxy-2-methylphenyl)-1H-indazol-5-yl)-1-methyl-1H-indazole-5-carboxamide] | 1 to 10 | 0.1 to 1
Cc1cccc(-c2n[nH]c3ccc(NC(=O)c4c(F)cc5c(cnn5C)c4F)cc23)c1 [Example 76, 4,6-Difluoro-1-methyl-N-(3-(m-tolyl)-1H-indazol-5-yl)-1H-indazole-5-carboxamide] | ≤ 0.1 | ≤ 0.1
O=C(Nc1ccc2[nH]nc(-c3ccoc3)c2c1)c1ccc2scnc2c1 [Example 124, N-(3-(Furan-3-yl)-1H-indazol-5-yl)benzo[d]thiazole-5-carboxamide] | 0.1 to 1 | 0.1 to 1
Cn1ncc2c(F)c(C(=O)Nc3ccc4[nH]nc(C5CCOC5)c4c3)c(F)cc21 (stereo not drawn) [Example 104, 4,6-Difluoro-1-methyl-N-(3-(tetrahydrofuran-3-yl)-1H-indazol-5-yl)-1H-indazole-5-carboxamide] | 1 to 10 | 0.1 to 1
Cc1cc2cnnn2c(C)c1C(=O)Nc1ccc2[nH]nc(-c3ccco3)c2c1 [Example 155, N-(3-(Furan-2-yl)-1H-indazol-5-yl)-5,7-dimethyl-[1,2,3]triazolo[1,5-a]pyridine-6-carboxamide] | ≤ 0.1 | ≤ 0.1
Cn1ncc2nc(C(=O)Nc3ccc4[nH]nc(-c5cnco5)c4c3)ccc21 [Example 165, 1-Methyl-N-(3-(oxazol-5-yl)-1H-indazol-5-yl)-1H-pyrazolo[4,3-b]pyridine-5-carboxamide] | 0.1 to 1 | ≤ 0.1
